Drawing on US5151417A, “3-substituted vinyl cephalosporin derivatives” (Eisai Co., Ltd., priority 1989, dated 1992), this text covers MIC for 15 molecules.

Values after ≈ are worked out from the molar mass of the structure shown. Read-outs that look alike come from different tables or passages of the source.

Common to all, as to format: cell-based
In assay [1] the test system is Staphylococcus aureus 209-P. Nature of the assay: In vitro antibacterial activity, Staphylococcus aureus 209-P (Tables 2-6). As to the method: (§1) Typical compounds out of the compounds described in Examples were classified into some groups. On each compound group, in vitro antibacterial activities were tested by a method known per se in the art.
The subject of another assay is Escherichia coli NIHJ. Nature of the assay: In vitro antibacterial activity, Escherichia coli NIHJ (Tables 2-6). As to the method: as §1
The subject of assay [2] is Klebsiella pneumoniae EK-6. In words: In vitro antibacterial activity, Klebsiella pneumoniae EK-6 (Tables 2-6). How it is done: as §1
Assay [3] concerns Serratia marcescens ES-75. Nature of the assay: In vitro antibacterial activity, Serratia marcescens ES-75 (Tables 2-6). As to the method:
as §1

The subject of assay [4] is Morganella morganii EP-14. In words: In vitro antibacterial activity, Morganella morganii EP-14 (Tables 2-6). As to the method: as §1
[5] abbreviates: Staphylococcus aureus, 209P, Staphylococcus aureus 209-P, read-out: MIC.
Setting [6] is: Escherichia coli, Escherichia coli NIHJ, read-out: MIC.
Setting [7] is: Klebsiella pneumoniae, EK6, Klebsiella pneumoniae EK-6, read-out: MIC.
[8] abbreviates: Serratia marcescens, ES75, Serratia marcescens ES-75, read-out: MIC.
Setting [9] is: Morganella morganii, EP14, Morganella morganii EP-14, read-out: MIC.

The MIC is the lowest concentration that inhibits growth of the organism. Consider `CO/N=C(\C(=O)N[C@@H]1C(=O)N2C(C(=O)[O-])=C(/C=C\C3CCCO3)CS[C@H]12)c1csc(N)n1.[Na+]` (stereo partly drawn) [Example 49, Sodium 7β-[(Z)-2-aminothiazol-4-yl-2-methoxyiminoacetamido]-3-[(Z)-2-(tetrahydrofuran-2-yl)vinyl]-3-cephem-4-carboxylate], for which the MIC in assay [1] (Staphylococcus aureus, 209P) amounted to 1.56 µg/mL; with Escherichia coli NIHJ (Escherichia coli) it was 0.8 µg/mL; in assay [2] (Klebsiella pneumoniae, EK6) it was 0.4 µg/mL; in assay [3] (Serratia marcescens, ES75), 0.05 µg/mL; in assay [4] (Morganella morganii, EP14), 0.1 µg/mL.
The corresponding values for `CN(C)C(=O)OC/C=C\C1=C(C(=O)[O-])N2C(=O)C(NC(=O)/C(=N\O)c3csc(N)n3)[C@H]2SC1.[Na+]` (stereo partly shown) [Example 30, Sodium 7-[(Z)-2-(2-aminothiazol-4-yl)-2-hydroxyiminoacetamido]-3-[(Z)-3-(N,N-dimethylcarbamoyloxy)-1-propenyl]-3-cephem-4-carboxylate] are 0.2 µg/mL, 0.2 µg/mL, 0.2 µg/mL, 0.05 µg/mL and 0.05 µg/mL.
The matching figures for `Nc1nc(/C(=N/O)C(=O)N[C@@H]2C(=O)N3C(C(=O)[O-])=C(/C=C\c4cncnc4)CS[C@H]23)cs1.[Na+]` [Example 16, Sodium 7β-[(Z)-2-(2-aminothiazol-4-yl)-2-(hydroxyimino)acetamido]-3-[(Z)-2 (pyrimidin-5-yl)vinyl]-3-cephem-4-carboxylate]: 0.2 µg/mL, 0.1 µg/mL, 0.05 µg/mL, over 100 µg/mL and 0.012 µg/mL.
`CO/N=C(\C(=O)N[C@@H]1C(=O)N2C(C(=O)O)=C(/C=C/C3CCCO3)CS[C@H]12)c1csc(N)n1` (single isomer, unassigned) [48 B]: the MIC in assay [1] (Staphylococcus aureus 209-P) is 0.8 µg/mL (≈ 1.67 µM); with Escherichia coli NIHJ (Escherichia coli NIHJ), 0.8 µg/mL (≈ 1.67 µM); in assay [2] (Klebsiella pneumoniae EK-6), 0.4 µg/mL (≈ 0.834 µM); in assay [3] (Serratia marcescens ES-75) it was 0.1 µg/mL (≈ 0.209 µM); in assay [4] (Morganella morganii EP-14), 0.2 µg/mL (≈ 0.417 µM).
As for `CO/N=C(\C(=O)N[C@@H]1C(=O)N2C(C(=O)[O-])=C(/C=C/c3cnccn3)CS[C@H]12)c1csc(N)n1.[Na+]` [Example 27, Sodium 7β-[(Z)-2-(2-aminothiazol-4-yl)-2-(methoxyimino)acetamido]-3-[(E)-2-(pyrazin-2-yl)vinyl]-3-cephem-4-carboxylate], the MIC was found to be 0.8 µg/mL in assay [1] (Staphylococcus aureus, 209P); 0.2 µg/mL with Escherichia coli NIHJ (Escherichia coli); 0.1 µg/mL in assay [2] (Klebsiella pneumoniae, EK6); 0.05 µg/mL in assay [3] (Serratia marcescens, ES75); 0.05 µg/mL in assay [4] (Morganella morganii, EP14).
`Nc1nc(/C(=N/O)C(=O)NC2C(=O)N3C(C(=O)[O-])=C(/C=C\COC(=O)NCCCl)CS[C@H]23)cs1.[Na+]` (stereo partly shown) [Example 44, Sodium 7-[(Z)-2-(2-aminothiazol-4-yl)-2-hydroxyiminoacetamido]-3-[(Z)-3-(N-(2-chloroethyl)carbamoyloxy)-1-propenyl]-3-cephem-4-carboxylate]: the MIC in assay [1] (Staphylococcus aureus, 209P) was 0.1 µg/mL; against Escherichia coli NIHJ (Escherichia coli), 0.05 µg/mL; in assay [2] (Klebsiella pneumoniae, EK6) it was 0.05 µg/mL; in assay [3] (Serratia marcescens, ES75), 0.05 µg/mL; in assay [4] (Morganella morganii, EP14), at most 0.006 µg/mL.
For the molecule `CCNC(=O)OC/C=C\C1=C(C(=O)[O-])N2C(=O)C(NC(=O)/C(=N\O)c3csc(N)n3)[C@H]2SC1.[Na+]` (stereo partly shown) [Example 42, Sodium 7-[(Z)-2-(2-aminothiazol-4-yl)-2-hydroxyiminoacetamido]-3-[(Z)-3-(N-ethylcarbamoyloxy)-1-propenyl]-3-cephem-4-carboxylate], the MIC was 0.1 µg/mL in assay [1] (Staphylococcus aureus, 209P); 0.05 µg/mL with Escherichia coli NIHJ (Escherichia coli); 0.05 µg/mL in assay [2] (Klebsiella pneumoniae, EK6); 0.05 µg/mL in assay [3] (Serratia marcescens, ES75); at most 0.006 µg/mL in assay [4] (Morganella morganii, EP14).
For the molecule `Nc1nc(/C(=N/O)C(=O)N[C@@H]2C(=O)N3C(C(=O)O)=C(/C=C/C4CCCO4)CS[C@H]23)cs1` (single isomer, unassigned) [50 B], the MIC in assay [1] (Staphylococcus aureus 209-P) worked out at 0.1 µg/mL (≈ 0.215 µM); with Escherichia coli NIHJ (Escherichia coli NIHJ), 0.8 µg/mL (≈ 1.72 µM); in assay [2] (Klebsiella pneumoniae EK-6) it was 0.4 µg/mL (≈ 0.859 µM); in assay [3] (Serratia marcescens ES-75), 0.4 µg/mL (≈ 0.859 µM); in assay [4] (Morganella morganii EP-14), 0.2 µg/mL (≈ 0.43 µM).
For `CC(C)NC(=O)OC/C=C\C1=C(C(=O)[O-])N2C(=O)C(NC(=O)/C(=N\O)c3csc(N)n3)[C@H]2SC1.[Na+]` (stereo partly shown) [Example 40, Sodium 7-[(Z)-2-(2-aminothiazol-4-yl)-2-hydroxyiminoacetamido]-3-[(Z)-3-(N-isopropylcarbamoyloxy)-1-propenyl]-3-cephem-4-carboxylate], the MIC in assay [1] (Staphylococcus aureus, 209P) came to 0.2 µg/mL; against Escherichia coli NIHJ (Escherichia coli) it was 0.1 µg/mL; in assay [2] (Klebsiella pneumoniae, EK6), 0.1 µg/mL; in assay [3] (Serratia marcescens, ES75), 0.05 µg/mL; in assay [4] (Morganella morganii, EP14), 0.025 µg/mL.
As to `CNC(=O)OC/C=C\C1=C(C(=O)O)N2C(=O)C(NC(=O)/C(=N\OC)c3csc(N)n3)C2SC1` (stereo not shown) [Example 38], the MIC in assay [1] (setting [5]) is 0.8 µg/mL (≈ 1.61 µM); in the assay with Escherichia coli NIHJ (setting [6]), 0.2 µg/mL (≈ 0.403 µM); in assay [2] (setting [7]), 0.05 µg/mL (≈ 0.101 µM); in assay [3] (setting [8]) it was 0.05 µg/mL (≈ 0.101 µM); in assay [4] (setting [9]), 0.012 µg/mL (≈ 0.0242 µM).
As for `C=CCNC(=O)OC/C=C\C1=C(C(=O)O)N2C(=O)C(NC(=O)/C(=N\O)c3csc(N)n3)C2SC1` (stereo not shown) [Example 46, Sodium 7-[(Z)-2-(2-aminothiazol-4-yl)-2-hydroxyiminoacetamido]-3-[(Z)-30(N-allylcarbamoyloxy)-1-propenyl] -3-cephem-4-carboxylate], the minimal inhibitory concentration (MIC) in assay [1] (setting [5]) worked out at 0.2 µg/mL; with Escherichia coli NIHJ (setting [6]), 0.1 µg/mL; in assay [2] (setting [7]), 0.05 µg/mL; in assay [3] (setting [8]), 0.05 µg/mL; in assay [4] (setting [9]), 0.012 µg/mL.
On to `CC(C)(C)C(=O)OCOC(=O)C1=C(/C=C\C2CC2)CS[C@@H]2[C@H](NC(=O)/C(=N\O)c3csc(N)n3)C(=O)N12` [Example 58, Pivaloyloxymethyl 7-62-[(Z)-2-(2-aminothiazol-4-yl)-2-hydroxyiminoacetamido]-3-[(Z)-cyclopropylvinyl]-3-cephem-4-carboxylate], for which the MIC in assay [1] (setting [5]) turned out to be 0.1 µg/mL (≈ 0.182 µM); in the assay with Escherichia coli NIHJ (setting [6]), 0.4 µg/mL (≈ 0.728 µM); in assay [2] (setting [7]), 0.2 µg/mL (≈ 0.364 µM); in assay [3] (setting [8]) it was 0.8 µg/mL (≈ 1.46 µM); in assay [4] (setting [9]) it was 0.1 µg/mL (≈ 0.182 µM).
As to `COc1ncncc1/C=C\C1=C(C(=O)[O-])N2C(=O)[C@@H](NC(=O)/C(=N\O)c3csc(N)n3)[C@H]2SC1.[Na+]` [Example 25, Sodium 7β-[(Z)-2-(2-aminothiazol-4-yl)-2-(hydroxyimino)acetamido]-3-[(Z)-2-(4-methoxypyrimidin-5-yl)vinyl]-3-cephem-4-carboxylate], the MIC in assay [1] (Staphylococcus aureus, 209P) amounted to 0.2 µg/mL; in the assay on Escherichia coli NIHJ (Escherichia coli) it was 0.8 µg/mL; in assay [2] (Klebsiella pneumoniae, EK6), 0.4 µg/mL; in assay [3] (Serratia marcescens, ES75) it was 0.2 µg/mL; in assay [4] (Morganella morganii, EP14) it was 0.1 µg/mL.
For the molecule `Nc1nc(/C(=N/O)C(=O)NC2C(=O)N3C(C(=O)O)=C(/C=C\COC(=O)N4CCOCC4)CSC23)cs1` (stereo not shown) [Example 32, Sodium 7-[(Z)-2-(2-aminothiazol-4-yl)-2-hydroxyiminoacetamido]-3-[(Z)-3-(1-morphorinylcarbonyloxy)-1-propenyl]-3-cephem-4-carboxylate], the MIC turned out to be 0.2 µg/mL in assay [1] (setting [5]), 0.2 µg/mL with Escherichia coli NIHJ (setting [6]) and 0.1 µg/mL in assay [2] (setting [7]).
Regarding `CO/N=C(\C(=O)N[C@@H]1C(=O)N2C(C(=O)O)=C(/C=C/c3c(Cl)ncnc3Cl)CS[C@H]12)c1csc(N)n1` [Example 29 (E)], the minimum inhibitory concentration (MIC) in assay [3] (setting [8]) came to 6.25 µg/mL (≈ 11.2 µM); in assay [4] (setting [9]), 0.4 µg/mL (≈ 0.719 µM).
